# Values of other authors, collected in US10427251B2, “Fine silver particle dispersion, fine silver particles, and method for producing same” (BANDO CHEMICAL INDUSTRIES, LTD., priority 2014, dated 2019).
# Details: n-octanol/water
row,SMILES,partition coefficient log P
1,"NCCCN [1,3-propanediamine]",−1.4
2,COCCN [2-methoxyethylamine],−0.9
3,CCOCCCN [3-ethoxypropylamine],−0.1
4,COCCCN [3-methoxypropylamine],−0.5
5,CCCCN [butylamine],1.0
6,CCN [ethylamine],−0.3
7,CCCCCCN [hexylamine],2.1
8,NCCCCCO [pentanolamine],−0.3
9,CCCN [propylamine],0.5
